# From ChEMBL document CHEMBL3244019, “Chemical and biological studies of 1-(2,5-dihydroxy-4-methylphenyl)-2-aminopropane, an analogue of 6-hydroxydopamine” (J Med Chem, 1979)
# Experiments:
# [1] = Half life in rabbit liver microsomes assessed as compound auto-oxidation at 37 uM; format: ADME, Oryctolagus cuniculus
# [2] = Half life in rabbit liver homogenates with 13 ug of protein per ml assessed as compound auto-oxidation at 37 uM; format: ADME, tissue-based, Oryctolagus cuniculus; details: liver homogenate
# [3] = Metabolic stability in rabbit liver homogenates with 90 ug of protein per ml assessed as compound auto-oxidation at 37 uM after 15 mins; format: ADME, tissue-based, Oryctolagus cuniculus; details: tissue homogenate, 0.25 h
# [4] = Half life of the compound assessed as compound auto-oxidation in 0.1 M buffer at 37 uM at pH 7.4; format: physicochemical
# [5] = Half life of the compound in 0.1 M metal-free buffer assessed as compound auto-oxidation at 37 uM at pH 7.4; format: physicochemical
# Albumin [6] = molecular target: T1, Albumin (Bos taurus, UniProt P02769); assay: Covalent binding affinity to bovine serum albumin at 4.8 mM after 1 hr by combustion-LSC method in presence of DDQ relative to control; format: ADME; details: cattle, 4800 µM
# Albumin [7] = molecular target: T1, Albumin; assay: Covalent binding affinity to bovine serum albumin assessed per mol of BSA at 4.8 mM after 1 hr by combustion-LSC method; format: ADME; details: cattle, 4800 µM
# [8] = Covalent binding in rabbit liver microsomal macromolecules at 60 uM after 15 mins in presence of NADPH; format: ADME, Oryctolagus cuniculus; details: microsomes, 0.25 h
# Brain = assay: Drug uptake in Sprague-Dawley rat brain at 6.6 mg, iv after 2 hrs; format: ADME, organism-based; details: in vivo
# T1 sequence (P02769 whole entry): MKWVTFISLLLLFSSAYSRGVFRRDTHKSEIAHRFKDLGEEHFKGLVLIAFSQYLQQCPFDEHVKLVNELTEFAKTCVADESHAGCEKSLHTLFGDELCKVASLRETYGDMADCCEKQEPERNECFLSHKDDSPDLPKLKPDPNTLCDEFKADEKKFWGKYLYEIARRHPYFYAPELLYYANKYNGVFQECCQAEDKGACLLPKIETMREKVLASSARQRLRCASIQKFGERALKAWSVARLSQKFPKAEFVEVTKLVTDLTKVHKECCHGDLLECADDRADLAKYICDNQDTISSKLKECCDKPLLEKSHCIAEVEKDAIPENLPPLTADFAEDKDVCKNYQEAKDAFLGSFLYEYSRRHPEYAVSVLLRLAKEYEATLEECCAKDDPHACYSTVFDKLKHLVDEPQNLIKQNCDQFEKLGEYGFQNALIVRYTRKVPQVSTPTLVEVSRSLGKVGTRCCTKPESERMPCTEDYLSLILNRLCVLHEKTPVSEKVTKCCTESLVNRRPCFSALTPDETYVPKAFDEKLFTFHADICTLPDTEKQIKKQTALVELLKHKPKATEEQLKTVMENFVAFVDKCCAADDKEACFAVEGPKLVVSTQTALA
structure (smiles),measurement,setting,value
Cc1cc(O)c(CC(C)N)cc1O (centres undefined),half-life at 37 µM,[1],1.67 h
same,half-life at 37 µM,[2],1.17 h
same,Stability,[3],Stable
same,half-life at 37 µM,[4],0.167 h
same,half-life at 37 µM,[5],3 h
[3H]C([3H])([3H])C(N)C([3H])([3H])c1cc(O)c(C)cc1O (centres undefined),fold change (FC),Albumin [6],2
same,PB,Albumin [7],0.12 equiv
[3H]C([3H])([3H])C(N)C([3H])([3H])c1cc(OC)c(C)cc1OC (centres undefined),Activity,[8],0.2%
[3H]C1C2=CC(=O)C(C)=CC2=NC1C (centres undefined),Drug uptake,Brain,0.05%
